Measurements from patent publication US8076487B2, “Pyridone derivative and herbicide” (Kumiai Chemical Industry Co., Ltd., priority 2006, dated 2011).

What was measured:
Assay in all cases: Test Example 1: herbicidal effect by soil application to paddy field
Type in all cases: in vivo
[1] = test system: early watergrass (Echinochloa oryzicola Vasing); details: for herbicidal effect, Echinochloa oryzicola Vasing: paddy field soil application, active ingredient 1,000 g per 1 hectare, wettable powder added dropwise to water surface the day after sowing, examined on the 21st day after application; for herbicidal effect (index), Echinochloa oryzicola Vasing: soil application to paddy field, rated by standard of Table 34
Description: (§1) Test Example 1 Test on Herbicidal Effect by Soil Application to Paddy Field In a 100 cm2 plastic pot, paddy field soil was filled. After puddling and leveling, seeds of early watergrass (Echinochloa oryzicola […] (Monochoria vaginalis ([…] Japanese bulrush (Scirpus juncoides Roxb.) were sown, and water was filled to be flooded to a water depth of 3 cm. […] Then, on the 21st day after the application to the plants grew in a greenhouse, the herbicidal effect was examined in accordance with a standard shown in Table 34. [table]

[2] = test system: Japanese bulrush (Scirpus juncoides Roxb.); details: for herbicidal effect, Scirpus juncoides Roxb.: paddy field soil application, active ingredient 1,000 g per 1 hectare, wettable powder added dropwise to water surface the day after sowing, examined on the 21st day after application; for herbicidal effect (index), Scirpus juncoides Roxb.: soil application to paddy field, rated by standard of Table 34
Description: as §1

[3] = test system: heartshape false pickerelweed (Monochoria vaginalis (Burm.f.) C.Presl); details: for herbicidal effect, Monochoria vaginalis (Burm. f.) C. Presl: paddy field soil application, active ingredient 1,000 g per 1 hectare, wettable powder added dropwise to water surface the day after sowing, examined on the 21st day after application; for herbicidal effect (index), Monochoria vaginalis (Burm.f.) C.Presl: soil application to paddy field, rated by standard of Table 34
Description: as §1

Row | SMILES | herbicidal effect, Echinochloa oryzicola Vasing [1] | herbicidal effect, Scirpus juncoides Roxb. [2] | herbicidal effect, Monochoria vaginalis (Burm. f.) C. Presl [3] | herbicidal effect (index), Echinochloa oryzicola Vasing [1] | herbicidal effect (index), Scirpus juncoides Roxb. [2] | herbicidal effect (index), Monochoria vaginalis (Burm.f.) C.Presl [3]
1 | CS(=O)(=O)c1ccc(Cn2c(C(F)(F)F)ccc(C(=O)C3=C(O)CCCC3=O)c2=O)cc1 [I-123] | 5 (90% or more of herbicidal effect and crop phytotoxicity) | 5 (90% or more of herbicidal effect and crop phytotoxicity) | 5 (90% or more of herbicidal effect and crop phytotoxicity) | – | – | –
2 | Cn1c(C(F)(F)F)ccc(C(=O)C2=C(Sc3ccccc3)CC(C)(C)CC2=O)c1=O [II-19] | 5 (90% or more of herbicidal effect and crop phytotoxicity) | 5 (90% or more of herbicidal effect and crop phytotoxicity) | 5 (90% or more of herbicidal effect and crop phytotoxicity) | – | – | –
3 | Cn1c(C(F)(F)F)ccc(C(=O)C(C#N)C(=O)C2CC2)c1=O (stereo not drawn) [V-9, 2-cyano-3-cyclopropyl-1-[1,2-dihydro-1-methyl-2-oxo-6-(trifluoromethyl)pyridin-3-yl]propane-1,3-dione] | – | – | – | 5 (90% or more of herbicidal effect and crop phytotoxicity) | 5 (90% or more of herbicidal effect and crop phytotoxicity) | 5 (90% or more of herbicidal effect and crop phytotoxicity)
4 | Cc1ccc(C(=O)C2=C(O)CCCC2=O)c(=O)n1-c1cccc(C(F)(F)F)c1 [I-235] | 5 (90% or more of herbicidal effect and crop phytotoxicity) | 5 (90% or more of herbicidal effect and crop phytotoxicity) | 5 (90% or more of herbicidal effect and crop phytotoxicity) | – | – | –
5 | Cc1ccc(S(=O)(=O)Oc2c(C(=O)c3ccc(C(F)(F)F)n(C)c3=O)c(C)nn2C)cc1 [IV-236] | 5 (90% or more of herbicidal effect and crop phytotoxicity) | 5 (90% or more of herbicidal effect and crop phytotoxicity) | 5 (90% or more of herbicidal effect and crop phytotoxicity) | – | – | –
6 | COc1ccccc1-n1c(C(F)(F)F)ccc(C(=O)c2cnn(C)c2O)c1=O [IV-64] | 5 (90% or more of herbicidal effect and crop phytotoxicity) | 5 (90% or more of herbicidal effect and crop phytotoxicity) | 5 (90% or more of herbicidal effect and crop phytotoxicity) | – | – | –
7 | Cc1ccc(S(=O)(=O)Oc2c(C(=O)c3ccc(C(F)(F)F)n(CC4CCCO4)c3=O)c(C)nn2C)cc1 (stereo not drawn) [IV-240] | 5 (90% or more of herbicidal effect and crop phytotoxicity) | 5 (90% or more of herbicidal effect and crop phytotoxicity) | 5 (90% or more of herbicidal effect and crop phytotoxicity) | – | – | –
8 | Cn1c(C(F)(F)F)ccc(C(=O)C2=C(Sc3ccc(Cl)cc3)CCCC2=O)c1=O [II-13] | 5 (90% or more of herbicidal effect and crop phytotoxicity) | 5 (90% or more of herbicidal effect and crop phytotoxicity) | 5 (90% or more of herbicidal effect and crop phytotoxicity) | – | – | –
9 | CC(C)(C)OC(=O)Nn1c(C(F)(F)F)ccc(C(=O)C2=C(O)CCCC2=O)c1=O [I-193] | 5 (90% or more of herbicidal effect and crop phytotoxicity) | 5 (90% or more of herbicidal effect and crop phytotoxicity) | 5 (90% or more of herbicidal effect and crop phytotoxicity) | – | – | –
10 | CN(C(=O)OC(C)(C)C)n1c(C(F)(F)F)ccc(C(=O)C2=C(O)CCCC2=O)c1=O [I-194] | 5 (90% or more of herbicidal effect and crop phytotoxicity) | 5 (90% or more of herbicidal effect and crop phytotoxicity) | 5 (90% or more of herbicidal effect and crop phytotoxicity) | – | – | –
11 | Cn1c(C(F)(F)Cl)ccc(C(=O)C2=C(O)CCCC2=O)c1=O [I-225] | 5 (90% or more of herbicidal effect and crop phytotoxicity) | 5 (90% or more of herbicidal effect and crop phytotoxicity) | 5 (90% or more of herbicidal effect and crop phytotoxicity) | – | – | –
12 | COc1cccc(Cn2c(C(F)(F)F)ccc(C(=O)C3=C(O)CCCC3=O)c2=O)c1 [I-121] | 5 (90% or more of herbicidal effect and crop phytotoxicity) | 5 (90% or more of herbicidal effect and crop phytotoxicity) | 5 (90% or more of herbicidal effect and crop phytotoxicity) | – | – | –
13 | Cc1ccc(S(=O)(=O)Oc2c(C(=O)c3ccc(C(F)(F)F)n(CC4CCCO4)c3=O)cnn2C)cc1 (stereo not drawn) [IV-141] | 5 (90% or more of herbicidal effect and crop phytotoxicity) | 5 (90% or more of herbicidal effect and crop phytotoxicity) | 5 (90% or more of herbicidal effect and crop phytotoxicity) | – | – | –
14 | CCCS(=O)(=O)Oc1c(C(=O)c2ccc(C(F)(F)F)n(CC3CCCO3)c2=O)c(C)nn1C (stereo not drawn) [IV-239] | 5 (90% or more of herbicidal effect and crop phytotoxicity) | 5 (90% or more of herbicidal effect and crop phytotoxicity) | 5 (90% or more of herbicidal effect and crop phytotoxicity) | – | – | –
15 | CN(C(=O)OCc1ccccc1)n1c(C(F)(F)F)ccc(C(=O)C2=C(O)CCCC2=O)c1=O [I-197] | 5 (90% or more of herbicidal effect and crop phytotoxicity) | 5 (90% or more of herbicidal effect and crop phytotoxicity) | 5 (90% or more of herbicidal effect and crop phytotoxicity) | – | – | –
16 | Cn1c(C(F)(F)F)ccc(C(=O)C2=C(n3cccn3)CCCC2=O)c1=O [II-17] | 5 (90% or more of herbicidal effect and crop phytotoxicity) | 5 (90% or more of herbicidal effect and crop phytotoxicity) | 5 (90% or more of herbicidal effect and crop phytotoxicity) | – | – | –
17 | COc1ccc(-n2c(C(F)(F)F)ccc(C(=O)c3cnn(C)c3O)c2=O)cc1 [IV-66] | 5 (90% or more of herbicidal effect and crop phytotoxicity) | 5 (90% or more of herbicidal effect and crop phytotoxicity) | 5 (90% or more of herbicidal effect and crop phytotoxicity) | – | – | –
18 | COc1cccc(Cn2c(C(F)(F)F)ccc(C(=O)c3cnn(C)c3O)c2=O)c1 [IV-103] | 4 (70 to less than 90% of herbicidal effect and crop phytotoxicity) | 4 (70 to less than 90% of herbicidal effect and crop phytotoxicity) | 5 (90% or more of herbicidal effect and crop phytotoxicity) | – | – | –
19 | N#CC(C(=O)c1ccc(C(F)(F)F)n(CC2CCCO2)c1=O)=C(O)C1CC1 (stereo not drawn) [V-26] | – | – | – | 5 (90% or more of herbicidal effect and crop phytotoxicity) | 4 (70 to less than 90% of herbicidal effect and crop phytotoxicity) | 5 (90% or more of herbicidal effect and crop phytotoxicity)
20 | CCCS(=O)(=O)Oc1c(C(=O)c2ccc(C(F)(F)F)n(CCC[S+](C)[O-])c2=O)cnn1C (stereo not drawn) [IV-59] | 4 (70 to less than 90% of herbicidal effect and crop phytotoxicity) | 3 (50 to less than 70% of herbicidal effect and crop phytotoxicity) | 4 (70 to less than 90% of herbicidal effect and crop phytotoxicity) | – | – | –
21 | CCCS(=O)(=O)Oc1c(C(=O)c2ccc(C(F)(F)F)n(Cc3cccc(OC)c3)c2=O)cnn1C [IV-104] | 5 (90% or more of herbicidal effect and crop phytotoxicity) | 4 (70 to less than 90% of herbicidal effect and crop phytotoxicity) | 5 (90% or more of herbicidal effect and crop phytotoxicity) | – | – | –
22 | CCCS(=O)(=O)Oc1c(C(=O)c2ccc(C(F)(F)F)n(-c3cccc(S(C)(=O)=O)c3)c2=O)cnn1C [IV-75] | 5 (90% or more of herbicidal effect and crop phytotoxicity) | 5 (90% or more of herbicidal effect and crop phytotoxicity) | 5 (90% or more of herbicidal effect and crop phytotoxicity) | – | – | –
